Results as given in ChEMBL document CHEMBL4680110 (2018).
Calls of active or inactive are those of the source. Peptide text beside a SMILES is read from it. * marks the point of attachment. Bz = O=C(c1ccccc1)*

Columns and labels:
GABA-B receptor = GABA-B receptor (Homo sapiens, UniProt O75899+Q9UBS5); assay: Activation of human GABAB1/GABAB2 expressed in HEK293 cells co-transfected with rat CaV2.2 channel assessed as reduction in CaV2.2-mediated peak-current amplitude in response to the depolarizing pulse by whole cell patch clamp assay; assay type: cell-based, HEK293T
Chain of GABA-B receptor (Q9UBS5 whole entry): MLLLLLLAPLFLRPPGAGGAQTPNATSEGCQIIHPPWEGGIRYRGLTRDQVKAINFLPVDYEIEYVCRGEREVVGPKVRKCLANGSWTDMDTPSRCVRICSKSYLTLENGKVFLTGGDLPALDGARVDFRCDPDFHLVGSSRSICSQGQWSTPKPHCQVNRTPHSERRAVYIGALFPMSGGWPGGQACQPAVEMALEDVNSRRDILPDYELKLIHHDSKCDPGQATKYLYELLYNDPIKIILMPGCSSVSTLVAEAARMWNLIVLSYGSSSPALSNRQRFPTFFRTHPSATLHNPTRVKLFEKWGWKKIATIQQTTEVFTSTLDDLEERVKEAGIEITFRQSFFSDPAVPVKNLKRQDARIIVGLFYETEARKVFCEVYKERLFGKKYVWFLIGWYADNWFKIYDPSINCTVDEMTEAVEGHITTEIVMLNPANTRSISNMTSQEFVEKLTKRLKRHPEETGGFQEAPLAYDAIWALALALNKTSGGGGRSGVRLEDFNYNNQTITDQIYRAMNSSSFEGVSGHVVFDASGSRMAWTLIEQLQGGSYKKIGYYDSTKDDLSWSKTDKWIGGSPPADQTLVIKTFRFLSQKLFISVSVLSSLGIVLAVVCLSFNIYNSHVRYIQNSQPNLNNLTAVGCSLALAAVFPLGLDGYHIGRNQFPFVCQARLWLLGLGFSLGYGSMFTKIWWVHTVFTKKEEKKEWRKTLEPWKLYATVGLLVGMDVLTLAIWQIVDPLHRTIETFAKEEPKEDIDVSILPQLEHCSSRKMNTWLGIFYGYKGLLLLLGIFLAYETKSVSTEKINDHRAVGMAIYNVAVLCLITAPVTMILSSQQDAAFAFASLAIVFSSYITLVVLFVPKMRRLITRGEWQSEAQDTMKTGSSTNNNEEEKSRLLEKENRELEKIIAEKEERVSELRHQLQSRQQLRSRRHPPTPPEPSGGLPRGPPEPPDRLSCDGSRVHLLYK
Chain of GABA-B receptor (O75899 whole entry): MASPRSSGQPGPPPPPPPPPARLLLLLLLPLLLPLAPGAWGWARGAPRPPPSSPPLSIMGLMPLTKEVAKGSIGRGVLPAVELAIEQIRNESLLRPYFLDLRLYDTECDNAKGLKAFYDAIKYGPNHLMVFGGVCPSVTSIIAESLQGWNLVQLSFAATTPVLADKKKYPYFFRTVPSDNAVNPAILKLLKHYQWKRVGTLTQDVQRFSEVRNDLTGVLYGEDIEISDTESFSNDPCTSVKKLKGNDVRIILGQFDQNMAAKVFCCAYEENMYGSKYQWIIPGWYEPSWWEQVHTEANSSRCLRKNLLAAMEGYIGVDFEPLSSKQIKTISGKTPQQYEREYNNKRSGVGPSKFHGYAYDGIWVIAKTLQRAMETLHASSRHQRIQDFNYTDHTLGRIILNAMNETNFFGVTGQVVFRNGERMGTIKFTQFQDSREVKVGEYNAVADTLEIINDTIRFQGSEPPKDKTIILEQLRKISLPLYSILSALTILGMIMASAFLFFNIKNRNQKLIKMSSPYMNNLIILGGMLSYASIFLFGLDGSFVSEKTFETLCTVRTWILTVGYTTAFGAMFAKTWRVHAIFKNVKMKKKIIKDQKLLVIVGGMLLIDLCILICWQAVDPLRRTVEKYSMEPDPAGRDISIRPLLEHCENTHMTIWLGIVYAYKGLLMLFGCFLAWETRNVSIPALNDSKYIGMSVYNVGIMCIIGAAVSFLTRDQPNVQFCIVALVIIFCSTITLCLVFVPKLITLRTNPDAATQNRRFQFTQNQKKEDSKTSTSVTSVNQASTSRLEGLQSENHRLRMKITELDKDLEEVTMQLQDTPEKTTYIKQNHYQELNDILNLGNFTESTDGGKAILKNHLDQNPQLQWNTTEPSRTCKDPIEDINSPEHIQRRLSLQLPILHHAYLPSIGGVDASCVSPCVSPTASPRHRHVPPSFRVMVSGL

Rattus norvegicus [1] = assay: Analgesic activity in Sprague-Dawley rat model of PNL injury-induced neuropathic pain assessed as pain threshold elevation percentage at 15 nmol/kg, IM administered as single dose measured after 2 to 2.5 hrs post dose; assay type: functional; conditions: time 2-2.5 hrs
Rattus norvegicus [2] = assay: Analgesic activity in Sprague-Dawley rat model of PNL injury-induced neuropathic pain assessed as pain threshold elevation percentage at 0.3 nmol/kg, IM administered as single dose measured after 2 to 2.5 hrs post dose; assay type: functional; conditions: time 2-2.5 hrs
Rattus norvegicus [3] = assay: Analgesic activity in Sprague-Dawley rat model of chronic constriction injury-induced neuropathic pain assessed as increase in pain threshold elevation percentage at 0.3 to 15 nmol/kg, IM administered as single dose measured after 2 to 2.5 hrs post dose; assay type: functional, organism-based; conditions: dose 0.3-15 nmol/kg, time 2-2.5 hrs
[4] = Selectivity index, ratio of IC50 for inhibition of rat alpha9alpha10 nAChR expressed in Xenopus laevis oocytes to IC50 for activation of human GABAB1/GABAB2 expressed in HEK293 cells co-transfected with rat CaV2.2 channel assessed as reduction in CaV2.2-mediated peak Ba2+ current amplitude; assay type: cell-based
[5] = target: Nicotinic acetylcholine receptor alpha9/alpha10 (Rattus norvegicus, UniProt P43144+Q9JLB5); assay: Inhibition of rat alpha9alpha10 nAChR expressed in Xenopus laevis oocytes assessed as inhibition of Ach-induced response at -80 mV holding potential preincubated for 5 mins followed by Ach stimulation by two electrode voltage-clamp assay; assay type: cell-based, Oocyte
Chain of Nicotinic acetylcholine receptor alpha9/alpha10 (P43144 whole entry): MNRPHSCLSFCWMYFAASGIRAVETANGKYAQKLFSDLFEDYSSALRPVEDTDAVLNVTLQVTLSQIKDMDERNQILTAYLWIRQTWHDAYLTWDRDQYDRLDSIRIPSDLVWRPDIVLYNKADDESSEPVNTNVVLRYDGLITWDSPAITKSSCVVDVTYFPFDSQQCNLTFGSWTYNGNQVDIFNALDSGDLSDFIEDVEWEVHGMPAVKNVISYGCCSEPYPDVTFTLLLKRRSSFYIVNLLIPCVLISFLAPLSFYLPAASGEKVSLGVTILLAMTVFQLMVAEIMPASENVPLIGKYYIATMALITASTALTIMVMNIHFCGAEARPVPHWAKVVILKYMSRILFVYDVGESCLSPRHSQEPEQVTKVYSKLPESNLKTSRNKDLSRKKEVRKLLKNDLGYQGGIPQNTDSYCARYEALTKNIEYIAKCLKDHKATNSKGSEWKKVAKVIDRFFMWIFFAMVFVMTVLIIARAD
Chain of Nicotinic acetylcholine receptor alpha9/alpha10 (Q9JLB5 whole entry): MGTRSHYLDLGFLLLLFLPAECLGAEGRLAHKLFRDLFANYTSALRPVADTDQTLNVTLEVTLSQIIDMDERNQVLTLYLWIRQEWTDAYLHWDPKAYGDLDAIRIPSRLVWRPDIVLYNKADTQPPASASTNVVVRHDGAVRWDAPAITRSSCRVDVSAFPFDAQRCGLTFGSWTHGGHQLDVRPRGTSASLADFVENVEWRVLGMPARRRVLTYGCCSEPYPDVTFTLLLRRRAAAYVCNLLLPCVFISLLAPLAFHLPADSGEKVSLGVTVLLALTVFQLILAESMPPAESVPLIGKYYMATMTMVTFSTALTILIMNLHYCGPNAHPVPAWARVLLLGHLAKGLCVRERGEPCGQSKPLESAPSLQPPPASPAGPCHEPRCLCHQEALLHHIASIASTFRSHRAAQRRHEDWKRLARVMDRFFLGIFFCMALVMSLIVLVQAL

[6] = Selectivity index, ratio of IC50 for inhibition of human alpha9alpha10 nAChR expressed in Xenopus laevis oocytes to IC50 for activation of human GABAB1/GABAB2 expressed in HEK293 cells co-transfected with rat CaV2.2 channel assessed as reduction in CaV2.2-mediated peak-current amplitude; assay type: cell-based
Rattus norvegicus [7] = assay: Analgesic activity in Sprague-Dawley rat model of PNL injury-induced neuropathic pain assessed as pain threshold elevation percentage at 1.5 nmol/kg, IM administered as single dose measured after 2 to 2.5 hrs post dose; assay type: functional; conditions: time 2-2.5 hrs
Rattus norvegicus [8] = species: Rattus norvegicus; assay: Inhibition of TTX-resistant sodium channel in Sprague-Dawley rat DRG neuron at 10 uM at 10 mV holding potential by whole cell patch clamp technique
[9] = target: T1, GABA-B receptor (Homo sapiens) (UniProt Q9UBS5+O75899); assay: Activation of human GABAB1/GABAB2 expressed in HEK293 cells co-transfected with rat CaV2.2 channel assessed as reduction in CaV2.2-mediated Ba2+ peak-current amplitude in response to depolarizing pulse in presence of 1 uM GABAB receptor antagonist CGP55845 by whole cell patch clamp assay; assay type: cell-based; conditions: HEK293T, time 6.0 hrs
[10] = target: T1, GABA-B receptor (Homo sapiens); assay: Activation of human GABAB1/GABAB2 expressed in HEK293 cells co-transfected with rat CaV2.2 channel assessed as reduction in CaV2.2-mediated peak-current amplitude in response to depolarizing pulse at 1 nM by whole cell patch clamp assay relative to control; assay type: cell-based; conditions: HEK293T
Neuron = assay: Inhibition of TTX-sensitive sodium channel in Sprague-Dawley rat DRG neuron at 10 uM at -10 mV holding potential by whole cell patch clamp technique; assay type: tissue-based
[11] = target: Neuronal acetylcholine receptor; alpha9/alpha10 (Homo sapiens, UniProt Q9GZZ6+Q9UGM1); assay: Inhibition of human alpha9alpha10 nAChR expressed in Xenopus laevis oocytes assessed as inhibition of Ach-induced response at -80 mV holding potential preincubated for 5 mins followed by Ach stimulation by two electrode voltage-clamp assay; assay type: cell-based, Oocyte
Chain of Neuronal acetylcholine receptor; alpha9/alpha10 (Q9UGM1 whole entry): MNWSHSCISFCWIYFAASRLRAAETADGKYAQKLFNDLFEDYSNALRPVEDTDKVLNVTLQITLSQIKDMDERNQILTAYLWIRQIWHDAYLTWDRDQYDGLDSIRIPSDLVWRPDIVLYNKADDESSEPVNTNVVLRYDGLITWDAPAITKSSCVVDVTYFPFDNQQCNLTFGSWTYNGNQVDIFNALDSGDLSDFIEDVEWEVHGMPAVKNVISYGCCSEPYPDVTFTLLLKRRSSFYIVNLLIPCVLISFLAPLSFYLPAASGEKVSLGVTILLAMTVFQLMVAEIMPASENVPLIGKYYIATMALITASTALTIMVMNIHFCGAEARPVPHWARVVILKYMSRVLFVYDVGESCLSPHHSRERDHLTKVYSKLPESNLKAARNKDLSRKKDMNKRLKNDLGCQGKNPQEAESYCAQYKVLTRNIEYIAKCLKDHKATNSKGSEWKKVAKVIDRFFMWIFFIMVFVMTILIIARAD
Chain of Neuronal acetylcholine receptor; alpha9/alpha10 (Q9GZZ6 whole entry): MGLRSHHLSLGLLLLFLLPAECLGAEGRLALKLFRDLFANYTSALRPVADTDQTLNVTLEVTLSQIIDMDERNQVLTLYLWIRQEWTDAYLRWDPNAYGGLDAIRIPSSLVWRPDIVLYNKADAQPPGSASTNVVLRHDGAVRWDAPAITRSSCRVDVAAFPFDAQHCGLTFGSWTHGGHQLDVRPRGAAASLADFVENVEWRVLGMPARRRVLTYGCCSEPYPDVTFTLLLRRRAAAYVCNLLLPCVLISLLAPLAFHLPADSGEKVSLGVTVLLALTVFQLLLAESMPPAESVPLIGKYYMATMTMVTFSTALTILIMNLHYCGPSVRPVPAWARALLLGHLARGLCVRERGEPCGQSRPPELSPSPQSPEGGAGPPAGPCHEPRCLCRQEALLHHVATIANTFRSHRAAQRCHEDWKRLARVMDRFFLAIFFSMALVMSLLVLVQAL

[12] = target: Neuronal acetylcholine receptor; alpha3/beta2 (Rattus norvegicus) (UniProt P04757+P12390); assay: Inhibition of rat alpha3beta2 nAChR expressed in Xenopus laevis oocytes assessed as inhibition of Ach-induced response at 10 uM at -80 mV holding potential preincubated for 5 mins followed by Ach stimulation by two electrode voltage-clamp assay relative to control; assay type: cell-based; conditions: Oocyte
[13] = target: Voltage-dependent N-type calcium channel subunit alpha-1B (Rattus norvegicus) (UniProt Q02294); assay: Inhibition of rat CaV2.2 channel expressed in HEK293T cells assessed as reduction in CaV2.2-mediated peak-current amplitude in response to depolarizing pulse at 10 uM by whole cell patch clamp assay relative to control; assay type: cell-based
[14] = target: Neuronal acetylcholine receptor; alpha4/beta2 (Rattus norvegicus) (UniProt P09483+P12390); assay: Inhibition of rat alpha4beta2 nAChR expressed in Xenopus laevis oocytes assessed as inhibition of Ach-induced response at 10 uM at -80 mV holding potential preincubated for 5 mins followed by Ach stimulation by two electrode voltage-clamp assay relative to control; assay type: cell-based; conditions: Oocyte
[15] = target: Neuronal acetylcholine receptor; alpha2/beta2 (Rattus norvegicus) (UniProt P12389+P12390); assay: Inhibition of rat alpha2beta2 nAChR expressed in Xenopus laevis oocytes assessed as inhibition of Ach-induced response at 10 uM at -80 mV holding potential preincubated for 5 mins followed by Ach stimulation by two electrode voltage-clamp assay relative to control; assay type: cell-based; conditions: Oocyte
[16] = target: Neuronal acetylcholine receptor; alpha3/beta4 (Rattus norvegicus) (UniProt P04757+P12392); assay: Inhibition of rat alpha3beta4 nAChR expressed in Xenopus laevis oocytes assessed as inhibition of Ach-induced response at 10 uM at -80 mV holding potential preincubated for 5 mins followed by Ach stimulation by two electrode voltage-clamp assay relative to control; assay type: cell-based; conditions: Oocyte
[17] = target: Neuronal acetylcholine receptor; alpha2/beta4 (Rattus norvegicus) (UniProt P12389+P12392); assay: Inhibition of rat alpha2beta4 nAChR expressed in Xenopus laevis oocytes assessed as inhibition of Ach-induced response at 10 uM at -80 mV holding potential preincubated for 5 mins followed by Ach stimulation by two electrode voltage-clamp assay relative to control; assay type: cell-based; conditions: Oocyte
[18] = target: T1, GABA-B receptor (Homo sapiens); assay: Activation of human GABAB1/GABAB2 expressed in HEK293 cells co-transfected with rat CaV2.2 channel assessed as reduction in CaV2.2-mediated peak-current amplitude in response to depolarizing pulse at 1 nM in presence of with 10 uM baclofen by whole cell patch clamp assay relative to control; assay type: cell-based; conditions: HEK293T, filed as activator
[19] = target: Neuronal acetylcholine receptor subunit alpha-7 (Rattus norvegicus) (UniProt Q05941); assay: Inhibition of rat alpha7 nAChR expressed in Xenopus laevis oocytes assessed as inhibition of Ach-induced response at 10 uM at -80 mV holding potential preincubated for 5 mins followed by Ach stimulation by two electrode voltage-clamp assay relative to control; assay type: cell-based; conditions: Oocyte
Chain of Neuronal acetylcholine receptor subunit alpha-7 (Rattus norvegicus) (Q05941 whole entry): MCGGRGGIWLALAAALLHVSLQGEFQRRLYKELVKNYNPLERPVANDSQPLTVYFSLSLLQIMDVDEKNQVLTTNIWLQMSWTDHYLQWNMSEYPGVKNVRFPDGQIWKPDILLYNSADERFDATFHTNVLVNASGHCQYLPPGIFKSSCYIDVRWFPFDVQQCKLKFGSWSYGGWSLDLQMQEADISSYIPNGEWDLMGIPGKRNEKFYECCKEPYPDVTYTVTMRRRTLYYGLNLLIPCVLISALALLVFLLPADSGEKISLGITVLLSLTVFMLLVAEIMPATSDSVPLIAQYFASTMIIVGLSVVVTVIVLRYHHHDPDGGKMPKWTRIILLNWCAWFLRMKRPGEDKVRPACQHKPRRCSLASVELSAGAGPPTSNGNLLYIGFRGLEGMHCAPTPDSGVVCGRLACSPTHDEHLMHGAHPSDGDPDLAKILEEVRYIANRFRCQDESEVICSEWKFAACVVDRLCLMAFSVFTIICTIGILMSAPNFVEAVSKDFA

| SMILES | IC50 (GABA-B receptor) | Activity (Rattus norvegicus [1]) | Ratio IC50 [4] | IC50 [5] | Ratio IC50 [6] | inhibition (Rattus norvegicus [8]) | Activity [9] | inhibition [10] | inhibition (Neuron) | IC50 [11] | other results |
| --- | --- | --- | --- | --- | --- | --- | --- | --- | --- | --- | --- |
| CC[C@H](C)[C@H](NC(=O)[C@H](CCC(=O)O)NC(=O)[C@@H]1CCCN1C(=O)[C@H](Cc1cnc[nH]1)NC(=O)[C@H](CCCNC(=N)N)NC(=O)[C@H](Cc1ccc(O)cc1)NC(=O)[C@H](CCCNC(=N)N)NC(=O)[C@H](CS)NC(=O)[C@H](CCCNC(=N)N)NC(=O)[C@@H]1CCCN1C(=O)[C@H](CC(=O)O)NC(=O)[C@H](CO)NC(=O)[C@H](CS)NC(=O)[C@H](CS)NC(=O)CN)C(=O)N[C@@H](CS)C(N)=O (H-GCCSDPRCRYRHPEIC-NH2) | > 1000 nM | 35.3% | – | – | – | – | – | – | – | – | – |
| CC[C@H](C)[C@H](NC(=O)[C@H](CCC(=O)O)NC(=O)[C@@H]1CCCN1C(=O)[C@H](Cc1cnc[nH]1)NC(=O)[C@H](CC(=O)O)NC(=O)[C@H](Cc1ccc(O)cc1)NC(=O)[C@H](CCCNC(=N)N)NC(=O)[C@H](CS)NC(=O)[C@H](CCCNC(=N)N)NC(=O)[C@@H]1CCCN1C(=O)[C@H](CC(=O)O)NC(=O)[C@H](CO)NC(=O)[C@H](CS)NC(=O)[C@@H](N)CS)C(=O)N[C@@H](CS)C(N)=O (H-CCSDPRCRYDHPEIC-NH2) | 23.2 nM | 32.5% | – | – | – | – | – | – | – | – | – |
| CC[C@H](C)[C@H](NC(=O)[C@H](CCC(=O)O)NC(=O)[C@@H]1CCCN1C(=O)[C@H](Cc1cnc[nH]1)NC(=O)[C@H](CC(=O)O)NC(=O)[C@H](Cc1ccc(O)cc1)NC(=O)[C@H](CC(N)=O)NC(=O)[C@H](CS)NC(=O)[C@H](CCCNC(=N)N)NC(=O)[C@@H]1CCCN1C(=O)[C@H](CC(=O)O)NC(=O)[C@H](CO)NC(=O)[C@H](CS)NC(=O)[C@H](CS)NC(=O)CN)C(=O)N[C@@H](CS)C(N)=O | 2.4 nM | 51.1% | 11.8 | 28.3 nM | 417 | inactive | inactive | 18.8% | inactive | 1000 nM | Activity (Rattus norvegicus [2]): 12.2%; Activity (Rattus norvegicus [3]): Active; Activity (Rattus norvegicus [7]): 25.6% |
| CC[C@H](C)[C@H](NC(=O)[C@H](CCC(=O)O)NC(=O)[C@@H]1CCCN1C(=O)[C@H](Cc1cnc[nH]1)NC(=O)[C@H](CC(=O)O)NC(=O)[C@H](Cc1ccc(O)cc1)NC(=O)[C@H](CCCNC(=N)N)NC(=O)[C@H](CS)NC(=O)[C@H](CCCNC(=N)N)NC(=O)[C@@H]1CCCN1C(=O)[C@H](CC(=O)O)NC(=O)[C@H](CO)NC(=O)[C@H](CS)NC(=O)[C@H](CS)NC(=O)CNC(=O)c1ccccc1)C(=O)N[C@@H](CS)C(N)=O (Bz-GCCSDPRCRYDHPEIC-NH2) | 0.2 nM | 80% | 4380 | 875 nM | > 25000 | inactive | inactive | 39.7% | inactive | 5930 nM | inhibition [12]: > 50%; inhibition [13]: 2.2%; inhibition [14]: > 50%; inhibition [15]: > 50%; inhibition [16]: > 50%; inhibition [17]: > 50%; inhibition [18]: 67.4%; inhibition [19]: > 50% |
